The target of test [1] is Potassium channel subfamily K member 9 (Homo sapiens, UniProt Q9NPC2). Nature of the test: TASK3 (KCNK9) channel inhibitors, thallium flux, SAR follow-up, selectivity assay for TASK1 inhibitor project, cell-based, FluxOR thallium flux, concentration-response (AID 652211).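 Further: potency is for inhibitors of the channel.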 The class given is functional.
The target of test [2] is Potassium channel subfamily K member 3 (Homo sapiens, UniProt O14649). The experiment in a line: TASK1 (KCNK3) potassium channel inhibitors, SAR follow-up, CHO cells, FluxOR thallium flux (AID 652212). The class given is functional.
Potassium channel subfamily K member 3, sequence (O14649 whole entry): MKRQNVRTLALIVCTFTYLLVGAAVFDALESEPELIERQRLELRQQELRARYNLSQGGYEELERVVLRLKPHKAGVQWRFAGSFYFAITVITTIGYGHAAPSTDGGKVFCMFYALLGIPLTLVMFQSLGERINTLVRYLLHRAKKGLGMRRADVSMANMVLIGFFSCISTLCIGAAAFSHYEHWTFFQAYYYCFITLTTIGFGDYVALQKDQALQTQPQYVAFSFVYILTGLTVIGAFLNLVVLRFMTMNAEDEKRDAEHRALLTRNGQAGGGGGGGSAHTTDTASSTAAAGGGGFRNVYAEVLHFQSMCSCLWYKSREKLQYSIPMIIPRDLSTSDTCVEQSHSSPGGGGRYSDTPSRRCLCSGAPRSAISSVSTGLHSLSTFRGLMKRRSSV
For test [3], the target named is Protein disulfide-isomerase A6 (Homo sapiens, UniProt Q15084). Nature of the test: Secondary Assay for Selectivity of PDI Inhibitors (against ERp5) Measured in Biochemical System Using Plate Reader - 2137-04_Inhibitor_Dose_DryPowder_Activity_Set3.
Protein disulfide-isomerase A6, sequence (Q15084 whole entry): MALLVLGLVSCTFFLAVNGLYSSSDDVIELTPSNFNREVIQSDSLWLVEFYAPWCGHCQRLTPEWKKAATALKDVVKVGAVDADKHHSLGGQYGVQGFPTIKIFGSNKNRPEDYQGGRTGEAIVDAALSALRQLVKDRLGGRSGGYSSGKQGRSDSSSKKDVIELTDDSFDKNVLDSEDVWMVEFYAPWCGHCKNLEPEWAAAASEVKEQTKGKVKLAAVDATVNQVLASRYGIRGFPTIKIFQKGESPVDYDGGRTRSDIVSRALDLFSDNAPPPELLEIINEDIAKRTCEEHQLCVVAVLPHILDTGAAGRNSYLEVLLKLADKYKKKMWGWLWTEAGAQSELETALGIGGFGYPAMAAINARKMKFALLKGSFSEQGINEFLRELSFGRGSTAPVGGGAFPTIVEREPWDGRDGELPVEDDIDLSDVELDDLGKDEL
For another test, the target named is Mu-type opioid receptor (Homo sapiens, UniProt P35372). The experiment in a line: Late-stage results from the probe development effort to identify antagonists of OPRK1: luminescence-based cell-based dose response OPRM1 counterscreen. The class given is functional.
Mu-type opioid receptor, sequence (P35372 whole entry): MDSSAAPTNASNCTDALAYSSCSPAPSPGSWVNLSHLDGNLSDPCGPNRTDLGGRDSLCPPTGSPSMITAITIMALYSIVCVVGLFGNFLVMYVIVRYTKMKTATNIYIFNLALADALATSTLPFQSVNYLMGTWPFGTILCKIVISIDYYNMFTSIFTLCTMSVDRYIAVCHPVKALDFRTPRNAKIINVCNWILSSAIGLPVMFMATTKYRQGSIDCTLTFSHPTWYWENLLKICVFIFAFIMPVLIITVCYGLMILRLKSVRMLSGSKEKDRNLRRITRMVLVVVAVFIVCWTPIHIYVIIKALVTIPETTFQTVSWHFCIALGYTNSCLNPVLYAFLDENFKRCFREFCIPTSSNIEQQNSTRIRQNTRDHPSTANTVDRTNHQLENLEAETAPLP
Test [4] addresses Delta-type opioid receptor (Homo sapiens, UniProt P41143). The experiment in a line: Late-stage results from the probe development effort to identify antagonists of OPRK1: fluorescence-based cell-based dose response OPRD1 counterscreen. The class given is functional.
Test [5] is described as follows: HEK293T cytotoxicity, dose response, cytotoxicity control for miR-122 modulator project, cell-based, activator set, cherry-pick (AID 720690).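 Further: HEK293T human cells scored for general mammalian cytotoxicity.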 The class given is functional.
Test [6] in a line: inhibitors of intracellular T. cruzi replication, confirmation, NIH3T3 host cells, beta-gal luminescence (AID 2044).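 Further: intracellular parasites grown in NIH/3T3 mouse fibroblasts as host cells; luminescent beta-galactosidase reporter signal from transgenic T. cruzi replicating inside host cells; inhibitors lower the luminescence signal.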 The class given is functional, cell-based.
A short description of test [7]: cytotoxicity toward NIH3T3 fibroblasts, dose response, counter-screen, cell-based, ATP luminescence, mouse fibroblasts (AID 2010).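 Further: cells exposed to compound for about 90 hours before reading.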 The class given is functional.
A further test deals with T1, Aminopeptidase N (Plasmodium falciparum FcB1/Columbia, UniProt O96935).
T1 sequence (O96935 whole entry): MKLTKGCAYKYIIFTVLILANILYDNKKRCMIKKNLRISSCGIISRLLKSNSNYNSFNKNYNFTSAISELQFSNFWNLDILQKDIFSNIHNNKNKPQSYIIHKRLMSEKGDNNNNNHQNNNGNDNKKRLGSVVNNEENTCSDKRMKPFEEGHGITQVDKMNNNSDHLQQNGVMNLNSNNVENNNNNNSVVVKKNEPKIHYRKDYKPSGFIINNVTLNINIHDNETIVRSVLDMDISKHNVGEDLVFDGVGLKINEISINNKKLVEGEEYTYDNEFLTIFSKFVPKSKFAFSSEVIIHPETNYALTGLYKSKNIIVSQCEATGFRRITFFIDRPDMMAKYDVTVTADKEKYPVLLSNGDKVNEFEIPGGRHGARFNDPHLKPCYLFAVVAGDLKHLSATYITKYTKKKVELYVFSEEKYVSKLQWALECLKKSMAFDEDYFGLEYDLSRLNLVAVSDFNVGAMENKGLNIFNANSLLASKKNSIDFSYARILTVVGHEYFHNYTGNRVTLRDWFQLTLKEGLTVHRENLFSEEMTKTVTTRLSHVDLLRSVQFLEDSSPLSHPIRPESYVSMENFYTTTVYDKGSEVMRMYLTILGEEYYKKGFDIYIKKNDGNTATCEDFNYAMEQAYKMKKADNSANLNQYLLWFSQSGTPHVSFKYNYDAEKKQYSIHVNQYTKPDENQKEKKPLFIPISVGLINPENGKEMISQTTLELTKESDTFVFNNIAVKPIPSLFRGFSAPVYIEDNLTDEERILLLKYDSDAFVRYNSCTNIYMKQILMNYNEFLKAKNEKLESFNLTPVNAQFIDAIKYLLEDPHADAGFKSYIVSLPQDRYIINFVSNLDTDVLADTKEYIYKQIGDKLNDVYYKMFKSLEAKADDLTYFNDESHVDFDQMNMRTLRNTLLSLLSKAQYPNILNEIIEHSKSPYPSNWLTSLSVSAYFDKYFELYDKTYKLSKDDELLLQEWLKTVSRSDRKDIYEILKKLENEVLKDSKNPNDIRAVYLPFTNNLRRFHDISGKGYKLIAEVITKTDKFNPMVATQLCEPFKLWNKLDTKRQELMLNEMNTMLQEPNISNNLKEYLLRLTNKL
The experiment in a line: P. falciparum M1AAP inhibitors, biochemical, fluorogenic H-Leu-NHMec substrate, 1536-well (AID 1445). Details: species or system Plasmodium falciparum 3D7, 3D7.

The nature of test [8]: microbe, parasite or virus in culture. The class given is functional. To be noted: Mycobacterium tuberculosis.
The nature of test [9]: Artemis endonuclease inhibitor potency, dose response, biochemical, fluorescence intensity (AID 720701).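 Further: Artemis endonuclease enzyme.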 The class given is functional.
The next test is described as follows: cells. The class given is functional.
Test [10] can be described thus: Vero E6 cell cytotoxicity, dose response, cytotoxicity control for non-replicating M. tuberculosis project, secondary assay (AID 492998). The class given is functional, VeroE6. To be noted: Vero C1008.
Test [11] is described as follows: CEM21 cell cytotoxicity, dose response, cytotoxicity control, plate reader, dry powder (AID 687026). The class given is functional, cell-based.
A short description of test [12]: inhibitors of HIV Env-driven cell fusion, dose response, cherry-pick (AID 652057). The class given is functional, cell-based.
A short description of test [13]: inhibitors of clade B AD8 Env fusion, dose response, cell-based, cherry-pick (AID 652062).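 Further: luciferase signal from cell-cell fusion driven by HIV-1 clade B AD8 Env; potency is for inhibitors of fusion seen as a drop in luminescence.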 The class given is functional.
Test [14] in a line: ZM109 Env clade C HIV-1 fusion inhibitors, dose response, HeLa effector, CEM target cells, luciferase, cherry-pick (AID 652058). The class given is functional, cell-based.
A short description of test [15]: cytotoxicity in OVCAR8 ovarian cancer cells, dose response, PAX8 project, cell-based, plate reader, dry powder samples (AID 743197). The class given is functional. To be noted: OVCAR-8.
The nature of test [16]: IGROV1 ovarian cancer cell cytotoxicity, dose response, PAX8 inhibitor project, plate reader, dry powder samples (AID 743043). To be noted: IGROV-1. The class given is functional, cell-based.
In a further test the target is Paired box protein Pax-8 (Homo sapiens, UniProt Q06710). Nature of the test: inhibitors of PAX8-driven TPO luciferase reporter, dose response, RMG-I cells, cherry-pick (AID 687027).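 Further: luciferase reporter driven by Pax8 target thyroperoxidase promoter measured by SteadyGlo luminescence.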 The class given is functional, cell-based.
Paired box protein Pax-8, sequence (Q06710 whole entry): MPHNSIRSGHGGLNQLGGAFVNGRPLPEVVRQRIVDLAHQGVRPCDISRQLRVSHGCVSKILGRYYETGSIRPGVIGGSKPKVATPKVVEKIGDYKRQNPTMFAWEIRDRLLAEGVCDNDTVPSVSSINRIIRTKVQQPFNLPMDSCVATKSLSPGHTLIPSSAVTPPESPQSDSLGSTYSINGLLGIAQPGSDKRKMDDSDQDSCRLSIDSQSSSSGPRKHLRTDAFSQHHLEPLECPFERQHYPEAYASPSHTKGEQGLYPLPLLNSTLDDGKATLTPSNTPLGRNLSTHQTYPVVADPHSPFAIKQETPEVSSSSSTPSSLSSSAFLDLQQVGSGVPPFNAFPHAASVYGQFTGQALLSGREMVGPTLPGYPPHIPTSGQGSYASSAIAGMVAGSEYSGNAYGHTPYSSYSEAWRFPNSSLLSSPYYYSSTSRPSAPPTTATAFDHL
Test [17] is described as follows: NIH:OVCAR-3 ovarian cancer cell cytotoxicity, dose response, PAX8 inhibitor project, plate reader, dry powder samples (AID 743044). The class given is functional, cell-based.
Test [18] can be described thus: A2780 ovarian cancer cell cytotoxicity, dose response, cytotoxicity control, plate reader, dry powder samples (AID 743046). The class given is functional, cell-based.
For a further test, the target named is Vasopressin V1b receptor (Homo sapiens, UniProt P47901). The experiment in a line: Late-stage results from the probe development effort to identify antagonists of arginine vasopressin receptor 1a (AVPR1a): fluorescence-based cell-based dose response AVPR1b inhibition counterscreen assay. The class given is functional.
Vasopressin V1b receptor, sequence (P47901 whole entry): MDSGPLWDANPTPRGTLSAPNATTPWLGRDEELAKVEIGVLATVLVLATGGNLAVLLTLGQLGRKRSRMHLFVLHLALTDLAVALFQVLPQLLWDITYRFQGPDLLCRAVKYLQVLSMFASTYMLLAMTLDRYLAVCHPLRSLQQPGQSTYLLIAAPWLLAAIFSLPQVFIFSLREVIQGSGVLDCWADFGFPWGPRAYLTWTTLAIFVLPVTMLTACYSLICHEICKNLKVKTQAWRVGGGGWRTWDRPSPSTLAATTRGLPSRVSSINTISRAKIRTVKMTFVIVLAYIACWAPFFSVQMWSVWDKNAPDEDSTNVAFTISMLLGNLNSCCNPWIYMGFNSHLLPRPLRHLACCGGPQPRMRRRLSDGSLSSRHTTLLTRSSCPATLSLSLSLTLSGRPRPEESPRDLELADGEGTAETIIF
Test [19] can be described thus: Late-stage results from the probe development effort to identify antagonists of arginine vasopressin receptor 1a (AVPR1a): fluorescence-based cell-based dose response OXTR inhibition counterscreen assay. The class given is functional.
Test [20] in a line: Late-stage results from the probe development effort to identify antagonists of arginine vasopressin receptor 1a (AVPR1a): fluorescence-based cell-based dose response AVPR1a inhibition assay. The class given is functional.
The next test concerns the target Vasopressin V2 receptor (Homo sapiens, UniProt P30518). The experiment in a line: Late-stage results from the probe development effort to identify antagonists of arginine vasopressin receptor 1a (AVPR1a): fluorescence-based cell-based dose response AVPR2 inhibition counterscreen assay. The class given is functional.

Active and inactive are the calls of the source.

Delta-type opioid receptor, sequence (P41143 whole entry): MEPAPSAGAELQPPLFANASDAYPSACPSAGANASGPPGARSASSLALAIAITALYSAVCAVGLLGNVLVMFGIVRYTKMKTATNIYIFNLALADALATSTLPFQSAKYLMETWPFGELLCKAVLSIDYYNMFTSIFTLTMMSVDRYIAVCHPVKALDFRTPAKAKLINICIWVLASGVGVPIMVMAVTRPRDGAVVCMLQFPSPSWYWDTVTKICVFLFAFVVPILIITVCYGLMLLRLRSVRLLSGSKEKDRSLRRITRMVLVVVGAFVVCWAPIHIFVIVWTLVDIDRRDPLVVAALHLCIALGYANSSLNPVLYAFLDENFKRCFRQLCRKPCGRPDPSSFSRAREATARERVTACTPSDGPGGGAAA
Potassium channel subfamily K member 9, sequence (Q9NPC2 whole entry): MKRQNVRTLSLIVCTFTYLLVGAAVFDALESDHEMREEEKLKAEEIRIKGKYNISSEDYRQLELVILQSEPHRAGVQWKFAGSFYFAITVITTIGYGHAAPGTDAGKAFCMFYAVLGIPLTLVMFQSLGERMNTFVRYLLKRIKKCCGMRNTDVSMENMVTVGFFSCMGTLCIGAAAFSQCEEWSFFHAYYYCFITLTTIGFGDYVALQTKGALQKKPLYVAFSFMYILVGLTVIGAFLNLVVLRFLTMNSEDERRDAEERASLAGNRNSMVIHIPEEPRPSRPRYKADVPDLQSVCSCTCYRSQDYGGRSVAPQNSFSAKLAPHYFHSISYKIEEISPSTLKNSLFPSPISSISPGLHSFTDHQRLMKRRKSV
Vasopressin V2 receptor, sequence (P30518 whole entry): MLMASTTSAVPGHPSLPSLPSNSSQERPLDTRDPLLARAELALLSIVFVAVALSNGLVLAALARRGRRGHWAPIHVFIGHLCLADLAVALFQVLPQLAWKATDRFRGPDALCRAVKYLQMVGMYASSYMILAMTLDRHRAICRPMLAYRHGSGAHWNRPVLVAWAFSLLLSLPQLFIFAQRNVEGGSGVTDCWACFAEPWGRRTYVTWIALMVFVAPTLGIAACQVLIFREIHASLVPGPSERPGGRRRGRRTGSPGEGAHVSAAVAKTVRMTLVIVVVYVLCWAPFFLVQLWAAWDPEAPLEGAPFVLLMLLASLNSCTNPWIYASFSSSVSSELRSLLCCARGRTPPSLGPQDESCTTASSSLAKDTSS

For the compound `CCOc1cccc(NC(=O)c2cccc(NC(=O)C3CCCC3)c2)c1`, the figures for the IC50 in test [1] and in test [2] were 4.07 µM (active) and 0.491 µM (active), respectively.
Turning to `C/C1=C\[C@@H](O)C(C)(C)CCCC2(C)OC2C[C@@H]1OC(=O)c1ccc(O)cc1` (stereo partly specified), the AC50 in [3] is 5 µM (active).
As for `COC(=O)c1cc(Br)cnc1N1CCC(N[C@@H]2CCCC[C@H]2O)CC1`, the values for the IC50 (at Mu-type opioid receptor; in [4]) were 2.8 µM (active) and 3.36 µM (active), respectively.
`O=C(Nc1nc(-c2cc3ccccc3o2)cs1)c1ccc(S(=O)(=O)N2CCCC2)cc1`: the concentration at half-maximal activity (AC50) in test [5] is 10.9 µM (active). The values for the half-maximal effective concentration (EC50) in test [6] and in test [7] were 4.21 µM (active) and > 30 µM (not active), respectively.
As for `Cc1cc(Cl)ccc1OCCCC(=O)NO`, the half-inhibitory concentration (IC50) on Aminopeptidase N was 43.1 µM (active); in test [9] it was 1.59 µM (active); in “cells” it was 27.9 µM (active). Also, the CC50 in [8] was 29.4 µM (active); in test [10] it was 18.9 µM (active).
On to `Cc1ccc(S(=O)(=O)Nc2cccc3c2O[C@@H](CN(C)Cc2ccc(Cl)c(Cl)c2)[C@@H](C)CN([C@H](C)CO)C3=O)cc1`, for which the AC50 was 19.2 µM (active) in [11], 12.1 µM (active) in test [12], 65.4 µM (active) in test [13] and 2.75 µM (active) in test [14].
On to `C[C@@H]1CCCCO[C@@H](CN(C)Cc2ccccc2)[C@H](C)CN([C@@H](C)CO)C(=O)c2cc(NC(=O)Nc3ccc(C(F)(F)F)cc3)ccc2O1`, for which the AC50 in test [15] was 42.2 µM (active); in [16] it was 47.9 µM (active); at Paired box protein Pax-8, 10.8 µM (active); in [17] it was 23.1 µM (active); in [18], 44.6 µM (active).
Consider `N#Cc1cccnc1N1CCC(C(=O)N(CC2CC2)c2ccc(Cl)cc2)CC1`, for which the IC50 was 14 µM (inactive) on Vasopressin V1b receptor, 6.8 µM (active) in test [19], 0.067 µM (active) in [20] and 24.4 µM (inactive) on Vasopressin V2 receptor.

The record behind these values is ChEMBL document CHEMBL1201862, “PubChem BioAssay data set” (2004).
